Measurements taken from patent publication US8252788B2, “Therapeutic compounds” (Allergan, Inc., priority 2008, dated 2012).

Assays:
[1] = test system: laser-induced hypertensive monkeys; test: In vivo intraocular pressure (IOP) test in laser-induced hypertensive monkeys
normotensive dogs = test: In vivo intraocular pressure (IOP) test in normotensive dogs
Method: Title compounds H145 and H146 from above are tested in vivo to test its ability to reduce intraocular pressure. Compound H145 is tested in normotensive dogs.

[2] = test system: lashes and adjacent hairs; test: Observation of lashes and adjacent hairs in glaucoma patients treated with bimatoprost in one eye; type: in vivo
Description: In the course of treating patients having glaucoma, treatment may only be appropriate in one eye. […] The lash appearance on the lids of the treated eyes would have appeared quite attractive if it represented a bilateral phenomenon. As a result of its asymmetric nature, the long lashes on one side could be construed as disturbing from a cosmetic standpoint. A systemic examination was preformed as a result of the asymmetric phenomenon. It soon became apparent that this altered appearance was not an isolated finding. […] Definite differences could be identified to varying degrees in the lashes and adjacent hairs of all patients who were taking the drug on a unilateral basis for longer than 6 months.
The changes in the lashes were apparent on gross inspection in several patients once attention was focused on the issue. In those with light colored hair and lashes, the differences were only seen easily with the aid of the high magnification and lighting capabilities of the slit lamp biomicroscope. In the course of glaucoma follow-up examination, attention is generally immediately focused on the eye itself. As a result of the high power magnification needed only one eye is seen at a time and the eye is seen at a high enough power that the lashes are not in focus. […]

Compound	IOP versus baseline [1]	intraocular pressure (IOP) versus baseline (normotensive dogs)	lash appearance in treated eye versus non-treated eye ([2]; glaucoma patient treated in one eye)	hair growth in treated versus control areas ([2]; multiple parameters of hair appearance, many subjects)
O=C(OCCO)c1ccc(CCC[C@@H]2[C@@H](CSc3cc(Cl)cc(Cl)c3)[C@H](O)C[C@H]2Cl)s1 [Compound H145]	decreases from baseline	decreases from baseline	–	–
O=C(OCCN1CCOCC1)c1ccc(CCC[C@@H]2[C@@H](CSc3cc(Cl)cc(Cl)c3)[C@H](O)C[C@H]2Cl)s1 [Compound H146]	decreases from baseline	decreases from baseline	–	–
O=C(OCCO)c1ccc(CCC[C@@H]2[C@@H](CNc3cc(Cl)cc(Cl)c3)[C@H](O)C[C@H]2Cl)s1 [Compound H147]	decreases from baseline	decreases from baseline	–	–
O=C(OCCN1CCOCC1)c1ccc(CCC[C@@H]2[C@@H](CNc3cc(Cl)cc(Cl)c3)[C@H](O)C[C@H]2Cl)s1 [Compound H148]	decreases from baseline	decreases from baseline	–	–
CCNC(=O)CCC/C=C\C[C@@H]1[C@@H](/C=C/[C@@H](O)CCc2ccccc2)[C@H](O)C[C@@H]1O [bimatoprost]	–	–	longer, thicker, and fuller	stimulated
